Legend:
[1] = tested on: OT-1 CD8+ T cells with MC38 tumor cells; experiment: Murine Cytotoxic T Lymphocyte Assay (IFN-γ); format: cell-based, mouse; settings: OT-1 CTL with SIINFEKL-pulsed MC38 cells, 24 h; read-out: msCTL INFg IC50
Excerpt: 5. Murine Cytotoxic T Lymphocyte Assay
An antigen-specific cytolytic T-cell (CTL) assay was developed to evaluate functionally the ability of DGKα and DGKζ inhibitors to enhance effector T cell mediated tumor cell killing activity. CD8^+ T-cells isolated from the OT-1 transgenic mouse recognize antigen presenting cells, MC38, that present the ovalbumin derived peptide […]. Recognition of the cognate antigen initiates the cytolytic activity of the OT-1 antigen-specific CD8+ T cells.
Functional CTL cells were generated as follows: OT-1 splenocytes from 8-12 week old mice were isolated and expanded in the presence of the […] peptide at 1 μg/mL and mIL2 at 10 U/mL. After three days, fresh media with […] was added. On day 5 of the expansion, the CD8+ T cells were isolated and ready for use. Activated CTL cells may be stored frozen for 6 months. Separately, one million MC38 tumor cells were pulsed with 1 μg/mL of […]-OVA peptide for 3 hours at 37 °C. The cells were washed (3×) with fresh media to remove excess peptide. Finally, CTL cells that were pretreated with DGK inhibitors for 1 hour in a 96-well U bottom plate were combined with the antigen loaded MC38 tumor cells at a 1:10 ratio. The cells were then spun at 700 rpm for 5 min and placed in an incubator overnight at 37 °C After 24 hours, the supernatant was collected for analysis of IFN-γ cytokine levels by AlphaLisa purchased from Perkin Elmer.

naïve human CD8 T cells = experiment: Human CD8 T Cells IFN-γ Assay; format: cell-based; settings: anti-CD3 + anti-CD28, 20 h, normalized to 3 μM reference compound, read-out: HuCD8 INFG Normalized EC50
Method: 7. Human CD8 T Cells IFN-γ Assay
Frozen naïve human CD8 T cells were thawed in AIM-V media, incubated for 2 h in 37 °C, and counted. The 384-well tissue culture plate was coated overnight at 4 °C with 20 μL anti-human CD3 at […] in PBS, which was removed off the plate before 40,000 cells per 40 microliters CD8 T cells with 0.1 μg/mL soluble anti-human CD28 were added to each well. The compounds were transferred using an Echo liquid handler to the cell plate immediately after the cells were plated. After 20 h incubation at 37 °C incubator, 3 microliters per well supernatants transferred into a new 384-well white assay plate for cytokine measurement.
Interferon-γ (IFN-γ) was quantitated using the AlphLISA kit (Cat #AL217) as described by the manufacturer manual (Perkin Elmer). The counts from each well were converted to IFN-γ concentration (pg/mL).

Human venous whole blood = experiment: Human Whole Blood IFN-γ Assay; format: cell-based; settings: anti-CD3 + anti-CD28, 24 h, normalized to 3 μM reference compound, read-out: INFg Whole Blood Normalized-Agonist EC50
Method: 9. Human Whole Blood IFN-γ Assay
Human venous whole blood (22.5 μL per well), obtained from healthy donors, was pre-treated with compounds for one hour at 37 °C in a humidified 95% air/5% CO2 incubator. The blood was stimulated with 2.5 μL anti-human CD3 and anti-CD28 mAb at a final concentration of 1 μg/mL each for 24 hours at 37 °C. IFN-γ in the supernatants was measured using AlphLISA kit (Cat #AL217).

Compound	EC50 [1] [µM]	EC50 (naïve human CD8 T cells) [µM]	EC50 (Human venous whole blood) [µM]
COC(=O)C1CN(c2cc(=O)n(C)c3ccc(C#N)nc23)CCN1C(c1ccc(F)cc1)c1ccc(F)cc1 (centres unmarked) [Compound 2, Methyl 1-(bis(4-fluorophenyl)methyl)-4-(6-cyano-1-methyl-2-oxo-1,2-dihydro-1,5-naphthyridin-4-yl)piperazine-2-carboxylate]	0.064	0.062	0.52
C[C@@H]1CN(c2c(C#N)c(=O)n(C)c3ccc(C#N)nc23)CCN1C(c1ccc(F)cc1)c1ccc(F)cc1 [Compound 4, (R)-8-(4-(bis(4-fluorophenyl)methyl)-3-methylpiperazin-1-yl)-5-methyl-6-oxo-5,6-dihydro-1,5-naphthyridine-2,7-dicarbonitrile]	0.043	0.017	0.4
C[C@@H]1CN(c2cc(=O)n(C)c3ccc(C#N)nc23)[C@@H](C)CN1C(c1ccccc1)c1ccc(F)cc1 (stereo partly drawn) [Compound 5, 8-[(2S,5R)-4-[(4-fluorophenyl) (phenyl)methyl]-2,5-dimethylpiperazin-1-yl]-5-methyl-6-oxo-5,6-dihydro-1,5-naphthyridine-2-carbonitrile]	–	0.03	0.68
COc1ccc2c(n1)c(N1C[C@@H](C)N(C(c3ccc(F)cc3)c3ccc(Cl)cc3)C[C@@H]1C)cc(=O)n2C (stereo partly drawn) [Compound 8, 4-[(2S,5R)-4-[(4-chlorophenyl)(4-fluorophenyl)methyl]-2,5-dimethylpiperazin-1-yl]-6-methoxy-1-methyl-1,2-dihydro-1,5-naphthyridin-2-one]	–	12	–
C[C@@H]1CN(c2cc(=O)n(C)c3ccc(C#N)nc23)[C@@H](C)CN1Cc1ccc(F)cc1C(F)F [Compound 9, 8-[(2S,5R)-4-{[2-(difluoromethyl)-4-fluorophenyl]methyl}-2,5-dimethylpiperazin-1-yl]-5-methyl-6-oxo-5,6-dihydro-1,5-naphthyridine-2-carbonitrile]	–	0.17	1.5
Cc1ccc(C(c2ccc(F)cc2)N2C[C@H](C)N(c3cc(=O)n(C)c4ccc(C#N)nc34)C[C@H]2C)cc1 (stereo partly drawn) [Compound 10, 8-[(2S,5R)-4-[(4-fluorophenyl)(4-methylphenyl)methyl]-2,5-dimethylpiperazin-1-yl]-5-methyl-6-oxo-5,6-dihydro-1,5-naphthyridine-2-carbonitrile]	0.032	0.023	0.44
CC(c1c(F)cccc1F)N1C[C@H](C)N(c2cc(=O)n(C)c3ccc(C#N)nc23)C[C@H]1C (stereo partly drawn) [Compound 11, 8-[(2S,5R)-4-[1-(2,6-difluorophenyl)ethyl]-2,5-dimethylpiperazin-1-yl]-5-methyl-6-oxo-5,6-dihydro-1,5-naphthyridine-2-carbonitrile]	–	0.022	0.65
CCC(c1ccc(F)cc1F)N1C[C@H](C)N(c2cc(=O)n(C)c3ccc(C#N)nc23)C[C@H]1C (stereo partly drawn) [Compound 12, 8-((2S,5R)-4-(1-(2,4-difluorophenyl)propyl)-2,5-dimethylpiperazin-1-yl)-5-methyl-6-oxo-5,6-dihydro-1,5-naphthyridine-2-carbonitrile]	–	0.048	0.44
Cc1ccc(C(c2ccc(C)cc2)N2C[C@H](C)N(c3cc(=O)n(C)c4ccc(C#N)nc34)C[C@H]2C)cc1 [Compound 16, 8-[(2S,5R)-4-[bis(4-methylphenyl)methyl]-2,5-dimethylpiperazin-1-yl]-5-methyl-6-oxo-5,6-dihydro-1,5-naphthyridine-2-carbonitrile]	0.072	0.0095	0.52
CCC(c1ccc(C(F)(F)F)cc1)N1C[C@H](CC)N(c2nc(=O)n(C)c3ccc(C#N)nc23)C[C@H]1CC (stereo partly drawn) [Compound 18, 4-((2S,5R)-2,5-Diethyl-4-(1-(4-(trifluoromethyl)phenyl)propyl)piperazin-1-yl)-1-methyl-2-oxo-1,2-dihydropyrido[3,2-d]pyrimidine-6-carbonitrile]	–	–	3.75
CC[C@@H]1CN(c2nc(=O)n(C)c3ccc(C#N)nc23)[C@@H](C)CN1C(C)c1ccc(C(F)(F)F)cc1 (stereo partly drawn) [Compound 19, 4-((2S,5R)-5-Ethyl-2-methyl-4-(1-(4-(trifluoromethyl)phenyl)ethyl)piperazin-1-yl)-1-methyl-2-oxo-1,2-dihydropyrido[3,2-d]pyrimidine-6-carbonitrile]	–	–	0.52
CC[C@@H]1CN(c2nc(=O)n(C)c3ccc(C#N)nc23)[C@@H](C)CN1C(C)c1ccc(C(F)(F)F)cc1 (stereo partly drawn) [Compound 20, 4-((2S,5R)-5-Ethyl-2-methyl-4-(1-(4-(trifluoromethyl)phenyl)ethyl)piperazin-1-yl)-1-methyl-2-oxo-1,2-dihydropyrido[3,2-d]pyrimidine-6-carbonitrile]	–	–	0.032
CC[C@@H]1CN(c2nc(=O)n(C)c3ccc(C#N)nc23)[C@@H](C)CN1C(c1ccc(F)cc1)c1ccc(C(F)(F)F)cn1 (stereo partly drawn) [Compound 21, 4-((2S,5R)-5-Ethyl-4-((4-fluorophenyl)(5-(trifluoromethyl)pyridin-2-yl)methyl)-2-methylpiperazin-1-yl)-1-methyl-2-oxo-1,2-dihydropyrido[3,2-d]pyrimidine-6-carbonitrile]	–	–	0.043
CC[C@@H]1CN(c2nc(=O)n(C)c3ccc(C#N)nc23)[C@@H](C)CN1C(c1ccc(F)cc1)c1ccc(C(F)(F)F)cn1 (stereo partly drawn) [Compound 22, 4-((2S,5R)-5-Ethyl-4-((4-fluorophenyl)(5-(trifluoromethyl)pyridin-2-yl)methyl)-2-methylpiperazin-1-yl)-1-methyl-2-oxo-1,2-dihydropyrido[3,2-d]pyrimidine-6-carbonitrile]	–	–	0.02
CC[C@@H]1CN(c2nc(=O)n(C)c3ccc(C#N)nc23)[C@@H](C)CN1C(c1ccc(Cl)cc1)c1ccccn1 (some centres unmarked) [Compound 23]	–	–	10.5
CC[C@@H]1CN(c2nc(=O)n(C)c3ccc(C#N)nc23)[C@@H](C)CN1C(c1ccc(Cl)cc1)c1ccccn1 (some centres unmarked) [Compound 24]	–	–	0.2
CC[C@H]1CN(C(c2ccc(F)cc2)c2nc(C3CC3)no2)[C@H](CC)CN1c1nc(=O)n(C)c2ccc(C#N)nc12 (some centres unmarked) [Compound 25]	–	–	0.015
CC[C@H]1CN(C(c2ccc(F)cc2)c2nc(C3CC3)no2)[C@H](CC)CN1c1nc(=O)n(C)c2ccc(C#N)nc12 (some centres unmarked) [Compound 26]	–	–	0.09
C[C@@H]1CN(c2nc(=O)n(C)c3ccc(C#N)nc23)[C@@H](C)CN1C(c1ccc(F)cc1)c1ccc(C(F)(F)F)cn1 (stereo partly drawn) [Compound 28, 4-((2S,5R)-4-((4-fluorophenyl)(5-(trifluoromethyl)pyridin-2-yl)methyl)-2,5-dimethylpiperazin-1-yl)-1-methyl-2-oxo-1,2-dihydropyrido[3,2-d]pyrimidine-6-carbonitrile]	–	–	0.24
CCC[C@@H]1CN(c2nc(=O)n(C)c3ccc(C#N)nc23)[C@@H](C)CN1C(C)c1ccc(C(F)(F)F)cc1 (stereo partly drawn) [Compound 33, 1-Methyl-4-((2S,5R)-2-methyl-5-propyl-4-(1-(4-(trifluoromethyl)phenyl)ethyl)piperazin-1-yl)-2-oxo-1,2-dihydropyrido[3,2-d]pyrimidine-6-carbonitrile]	–	–	20

Reference: patent US20260355239A1, “COMBINATION OF A T CELL THERAPY AND CONTINUOUS OR INTERMITTENT DGK INHIBITOR DOSING” (Juno Therapeutics, Inc., priority 2022, published 2026)
